Target: T1, Kinesin-like protein KIF11 (Homo sapiens, UniProt P52732)
T1 sequence (P52732 whole entry): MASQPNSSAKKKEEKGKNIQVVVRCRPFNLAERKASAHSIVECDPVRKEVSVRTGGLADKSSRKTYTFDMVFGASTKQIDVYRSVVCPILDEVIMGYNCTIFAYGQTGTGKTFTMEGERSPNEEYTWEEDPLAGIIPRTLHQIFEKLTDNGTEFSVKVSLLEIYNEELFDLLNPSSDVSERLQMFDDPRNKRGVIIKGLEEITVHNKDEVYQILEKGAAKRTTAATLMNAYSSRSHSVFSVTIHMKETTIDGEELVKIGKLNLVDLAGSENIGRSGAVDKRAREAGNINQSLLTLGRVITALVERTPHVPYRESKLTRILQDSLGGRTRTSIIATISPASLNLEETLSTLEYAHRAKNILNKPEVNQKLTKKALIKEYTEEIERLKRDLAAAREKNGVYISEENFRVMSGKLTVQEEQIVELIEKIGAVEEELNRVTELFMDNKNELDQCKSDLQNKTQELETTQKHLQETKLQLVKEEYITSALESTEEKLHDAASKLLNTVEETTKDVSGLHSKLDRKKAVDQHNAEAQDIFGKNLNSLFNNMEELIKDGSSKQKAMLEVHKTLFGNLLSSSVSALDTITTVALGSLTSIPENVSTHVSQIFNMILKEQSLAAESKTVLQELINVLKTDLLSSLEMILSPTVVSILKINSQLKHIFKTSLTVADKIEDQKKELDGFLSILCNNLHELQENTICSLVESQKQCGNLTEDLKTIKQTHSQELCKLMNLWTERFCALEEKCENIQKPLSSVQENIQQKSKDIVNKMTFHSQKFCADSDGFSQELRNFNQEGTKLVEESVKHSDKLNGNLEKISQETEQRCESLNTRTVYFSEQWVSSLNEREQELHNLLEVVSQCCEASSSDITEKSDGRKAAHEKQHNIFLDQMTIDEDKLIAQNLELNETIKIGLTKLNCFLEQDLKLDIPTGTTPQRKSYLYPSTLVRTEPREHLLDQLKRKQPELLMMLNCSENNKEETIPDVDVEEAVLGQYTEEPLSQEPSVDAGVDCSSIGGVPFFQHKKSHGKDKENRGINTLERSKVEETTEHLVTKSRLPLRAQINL
Test: In Vitro Assay: This example provides a representative in vitro assay for determining KSP activity in vitro. Purified microtubules obtained from bovine brain were purchased from Cytoskeleton Inc. (Denver, Colo., USA). The motor domain of human KSP (Eg 5, KNSL1) was cloned, expressed, and purified to greater than 95% homogeneity. Biomol Green was purchased from Affinity Research Products Ltd. (Matford Court, Exeter, Devon, United Kingdom). Microtubules and KSP motor protein (i.e., the KSP motor domain) were diluted in assay buffer (20 mM Tris-HCl (pH 7.5), 1 mM MgCl2, 10 mM DTT and 0.25 mg/mL BSA) to a final concentration of 35 μg/mL microtubules and 45 nM KSP. The microtubule/KSP mixture was then pre-incubated at 37 C. for 10 min to promote the binding of KSP to microtubules.

IC50: 216 nM
Structure (SMILES): C[C@H](O)C(=O)N(CC[C@H](N)CF)[C@H](c1nc(-c2cc(F)ccc2F)sc1Cc1ccccc1)C(C)(C)C

— ChEMBL document CHEMBL3638619, “Oxazole and thiazole compounds as KSP inhibitors” (2014)
